Measurements as given in PubChem BioAssay (NCI).
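Where inhibition never reached the appropriate level, the endpoint shown equals the highest concentration tested. Otherwise, values were interpolated linearly from a five-concentration, 48-hour dose response in 96-well plates. GI50: concentration for 50% inhibition of growth. The concentration for full growth arrest is given as TGI.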

Tests used:
Experiment in all cases: NCI anticancer screen, dose series, 48 h
[1] = test system: A549 NSCLC
[2] = test system: MCF7 breast
[3] = test system: CCRF-CEM leukemia
[4] = test system: SK-OV-3 ovarian
[5] = test system: SF-539 CNS
[6] = test system: ACHN renal
[7] = test system: UO-31 renal
[8] = test system: HT29 colon
[9] = test system: HL-60(TB) leukemia
[10] = test system: IGROV1 ovarian
[11] = test system: NCI-H226 lung
[12] = test system: KM12 colon
[13] = test system: RPMI-8226 leukemia
[14] = test system: HCT-116 colon
[15] = test system: SNB-75 CNS
[16] = test system: HOP-92 NSCLC
[17] = test system: NCI-H522 lung
[18] = test system: SNB-19 CNS
[19] = test system: MDA-MB-231 breast
[20] = test system: MALME-3M melanoma
[21] = test system: HS 578T breast
[22] = test system: SF-268 CNS
[23] = test system: T-47D breast
[24] = test system: RXF 393 renal
[25] = test system: SR leukemia
[26] = test system: HOP-62 NSCLC
[27] = test system: SN12C renal
[28] = test system: SK-MEL-2 melanoma
[29] = test system: OVCAR-5 ovarian
[30] = test system: SK-MEL-5 melanoma
[31] = test system: M14 melanoma
[32] = test system: OVCAR-3 ovarian
[33] = test system: CAKI-1 renal
[34] = test system: NCI-H460 lung
[35] = test system: UACC-62 melanoma
[36] = test system: TK-10 renal
[37] = test system: DU-145 prostate
[38] = test system: K-562 leukemia
[39] = test system: LOX IMVI melanoma
[40] = test system: OVCAR-4 ovarian
[41] = test system: A498 renal
[42] = test system: UACC-257 melanoma
[43] = test system: PC-3 prostate
[44] = test system: MOLT-4 leukemia
[45] = test system: SW-620 colon
[46] = test system: HCT-15 colon
[47] = test system: MDA-MB-435
[48] = test system: COLO 205 colon
[49] = test system: OVCAR-8 ovarian
[50] = test system: U251 CNS
[51] = test system: SF-295 CNS
[52] = test system: HCC-2998 colon
[53] = test system: NCI/ADR-RES ovarian
[54] = test system: SK-MEL-28 melanoma
[55] = test system: 786-0 renal
[56] = test system: NCI-H23 lung
[57] = test system: BT-549 breast

For `CC(C)(C)c1ccc(NC(=O)c2cc(=O)c3ccccc3[nH]2)c(C(C)(C)C)c1O`, which GI50 [1] is on record?
The GI50 was 3.23 µM.

And the TGI [1]?
Its TGI is 12.6 µM.

What about the GI50 [2] of the same molecule?
The GI50 was 3.35 µM.

And the TGI [2]?
The TGI was 12.9 µM.

What about the GI50 [3] of the same molecule?
The GI50 was 2.33 µM.

What about the TGI [3] of the same molecule?
Its TGI is 8.25 µM.

And the GI50 [4]?
The GI50 was 13.8 µM.

What about the TGI [4] of the same molecule?
Its TGI is 26.8 µM.

And the GI50 [5]?
Its GI50 is 13 µM.

And the TGI [5]?
Its TGI is 26.3 µM.

And the GI50 [6]?
The GI50 was 4.13 µM.

And the TGI [6]?
Its TGI is 12.8 µM.

And the GI50 [7]?
Its GI50 is 5.15 µM.

What about the TGI [7] of the same molecule?
The TGI was 17.5 µM.

What about the GI50 [8] of the same molecule?
The GI50 was 2.21 µM.

What about the TGI [8] of the same molecule?
The TGI was 4.78 µM.

What about the GI50 [9] of the same molecule?
The GI50 was 4.27 µM.

What about the TGI [9] of the same molecule?
Its TGI is 17.2 µM.

What about the GI50 [10] of the same molecule?
Its GI50 is 10.4 µM.

What about the TGI [10] of the same molecule?
The TGI was 22.7 µM.

What about the GI50 [11] of the same molecule?
The GI50 was 13.6 µM.

And the TGI [11]?
Its TGI is 28.9 µM.

And the GI50 [12]?
The GI50 was 3.13 µM.

And the TGI [12]?
Its TGI is 8.53 µM.

And the GI50 [13]?
Its GI50 is 2.89 µM.

And the TGI [13]?
Its TGI is 14.1 µM.

And the GI50 [14]?
The GI50 was 3.71 µM.

What about the TGI [14] of the same molecule?
Its TGI is 13.4 µM.

And the GI50 [15]?
Its GI50 is 7.4 µM.

And the TGI [15]?
Its TGI is 21.8 µM.

And the GI50 [16]?
The GI50 was 2.88 µM.

And the TGI [16]?
Its TGI is 12.8 µM.

And the GI50 [17]?
The GI50 was 8.04 µM.

And the TGI [17]?
The TGI was 20.8 µM.

And the GI50 [18]?
The GI50 was 13.7 µM.

And the TGI [18]?
Its TGI is 30 µM.

What about the GI50 [19] of the same molecule?
The GI50 was 3.29 µM.

What about the TGI [19] of the same molecule?
Its TGI is 13.9 µM.

What about the GI50 [20] of the same molecule?
Its GI50 is 12.1 µM.

And the TGI [20]?
Its TGI is 26.3 µM.

And the GI50 [21]?
The GI50 was 6.46 µM.

And the TGI [21]?
The TGI was 39 µM.

What about the GI50 [22] of the same molecule?
Its GI50 is 7.48 µM.

What about the TGI [22] of the same molecule?
The TGI was 22.4 µM.

What about the GI50 [23] of the same molecule?
Its GI50 is 7.49 µM.

And the TGI [23]?
The TGI was 21.9 µM.

And the GI50 [24]?
The GI50 was 2.31 µM.

And the TGI [24]?
The TGI was 5.16 µM.

What about the GI50 [25] of the same molecule?
Its GI50 is 2.13 µM.

What about the TGI [25] of the same molecule?
Its TGI is 4.69 µM.

And the GI50 [26]?
Its GI50 is 12.5 µM.

And the TGI [26]?
The TGI was 25.3 µM.

What about the GI50 [27] of the same molecule?
The GI50 was 9.81 µM.

And the TGI [27]?
Its TGI is 24.4 µM.

And the GI50 [28]?
The GI50 was 12.6 µM.

What about the TGI [28] of the same molecule?
Its TGI is 26.4 µM.

And the GI50 [29]?
The GI50 was 6.26 µM.

And the TGI [29]?
The TGI was 18.7 µM.

What about the GI50 [30] of the same molecule?
Its GI50 is 6.51 µM.

What about the TGI [30] of the same molecule?
Its TGI is 19 µM.

What about the GI50 [31] of the same molecule?
Its GI50 is 3.81 µM.

What about the TGI [31] of the same molecule?
Its TGI is 13.9 µM.

What about the GI50 [32] of the same molecule?
Its GI50 is 4.84 µM.

And the TGI [32]?
Its TGI is 15.9 µM.

What about the GI50 [33] of the same molecule?
The GI50 was 5.74 µM.

What about the TGI [33] of the same molecule?
The TGI was 19.2 µM.

And the GI50 [34]?
Its GI50 is 3.72 µM.

What about the TGI [34] of the same molecule?
The TGI was 13.9 µM.

What about the GI50 [35] of the same molecule?
Its GI50 is 9.65 µM.

And the TGI [35]?
The TGI was 22.9 µM.

What about the GI50 [36] of the same molecule?
The GI50 was 14.5 µM.

What about the TGI [36] of the same molecule?
Its TGI is 27.9 µM.

What about the GI50 [37] of the same molecule?
Its GI50 is 10.7 µM.

And the TGI [37]?
Its TGI is 23.5 µM.

What about the GI50 [38] of the same molecule?
Its GI50 is 4.37 µM.

And the TGI [38]?
Its TGI is 16.7 µM.

What about the GI50 [39] of the same molecule?
The GI50 was 3.22 µM.

What about the TGI [39] of the same molecule?
The TGI was 13.1 µM.

What about the GI50 [40] of the same molecule?
Its GI50 is 4.18 µM.

And the TGI [40]?
Its TGI is 15.7 µM.

And the GI50 [41]?
The GI50 was 4.33 µM.

And the TGI [41]?
Its TGI is 19.7 µM.

And the GI50 [42]?
Its GI50 is 6.35 µM.

What about the TGI [42] of the same molecule?
Its TGI is 21.3 µM.

What about the GI50 [43] of the same molecule?
The GI50 was 2.6 µM.

And the TGI [43]?
The TGI was 8.29 µM.

And the GI50 [44]?
The GI50 was 2.67 µM.

And the TGI [44]?
The TGI was 7.59 µM.

And the GI50 [45]?
Its GI50 is 8.24 µM.

And the TGI [45]?
Its TGI is 27.1 µM.

What about the GI50 [46] of the same molecule?
Its GI50 is 4.32 µM.

And the TGI [46]?
The TGI was 15.5 µM.

What about the GI50 [47] of the same molecule?
The GI50 was 4.92 µM.

What about the TGI [47] of the same molecule?
Its TGI is 17.7 µM.

What about the GI50 [48] of the same molecule?
Its GI50 is 3.8 µM.

And the TGI [48]?
The TGI was 10.5 µM.

What about the GI50 [49] of the same molecule?
Its GI50 is 3.28 µM.

What about the TGI [49] of the same molecule?
Its TGI is 12.2 µM.

What about the GI50 [50] of the same molecule?
Its GI50 is 3.59 µM.

What about the TGI [50] of the same molecule?
Its TGI is 12.9 µM.

What about the GI50 [51] of the same molecule?
The GI50 was 6.25 µM.

And the TGI [51]?
The TGI was 20.2 µM.

And the GI50 [52]?
Its GI50 is 3.04 µM.

What about the TGI [52] of the same molecule?
The TGI was 10.4 µM.

And the GI50 [53]?
Its GI50 is 9.11 µM.

What about the TGI [53] of the same molecule?
The TGI was 24.4 µM.

What about the GI50 [54] of the same molecule?
The GI50 was 12.8 µM.

What about the TGI [54] of the same molecule?
The TGI was 26 µM.

And the GI50 [55]?
The GI50 was 3.05 µM.

What about the TGI [55] of the same molecule?
The TGI was 12.1 µM.

And the GI50 [56]?
Its GI50 is 3.33 µM.

What about the TGI [56] of the same molecule?
Its TGI is 14.1 µM.

What about the GI50 [57] of the same molecule?
The GI50 was 6.77 µM.

And the TGI [57]?
The TGI was 19.9 µM.
